Source: publication PMC8213057, “Targeting ALK2: An Open Science Approach to Developing Therapeutics for the Treatment of Diffuse Intrinsic Pontine Glioma” (Journal of Medicinal Chemistry, 2020)

Assays:
NEK11 = target: T1, NEK11 (Homo sapiens, UniProt Q8NG66); test: biochemical; conditions: read-out: % enzyme activity, 1 μM; Run 1, Run 2
T1 sequence (Q8NG66 1-645): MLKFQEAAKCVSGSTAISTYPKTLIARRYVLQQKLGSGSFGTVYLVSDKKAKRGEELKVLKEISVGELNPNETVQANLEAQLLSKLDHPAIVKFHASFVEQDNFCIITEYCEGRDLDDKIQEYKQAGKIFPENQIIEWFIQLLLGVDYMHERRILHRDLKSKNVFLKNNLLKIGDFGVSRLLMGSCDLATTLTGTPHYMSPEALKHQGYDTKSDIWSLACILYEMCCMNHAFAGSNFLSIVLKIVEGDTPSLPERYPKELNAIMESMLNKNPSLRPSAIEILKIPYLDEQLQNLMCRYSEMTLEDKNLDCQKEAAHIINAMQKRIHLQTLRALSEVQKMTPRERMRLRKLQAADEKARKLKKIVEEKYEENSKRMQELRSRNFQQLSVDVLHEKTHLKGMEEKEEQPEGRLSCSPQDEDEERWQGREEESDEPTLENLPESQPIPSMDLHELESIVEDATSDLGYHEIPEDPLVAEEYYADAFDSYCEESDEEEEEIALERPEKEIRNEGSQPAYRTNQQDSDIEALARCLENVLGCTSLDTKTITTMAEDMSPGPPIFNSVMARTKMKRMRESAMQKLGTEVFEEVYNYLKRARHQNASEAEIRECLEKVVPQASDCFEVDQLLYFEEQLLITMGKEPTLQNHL

MYLK3 = target: T2, MYLK3 (Homo sapiens, UniProt Q32MK0); test: biochemical; conditions: read-out: % enzyme activity, 1 μM; Run 1, Run 2
T2 sequence (Q32MK0 1-819): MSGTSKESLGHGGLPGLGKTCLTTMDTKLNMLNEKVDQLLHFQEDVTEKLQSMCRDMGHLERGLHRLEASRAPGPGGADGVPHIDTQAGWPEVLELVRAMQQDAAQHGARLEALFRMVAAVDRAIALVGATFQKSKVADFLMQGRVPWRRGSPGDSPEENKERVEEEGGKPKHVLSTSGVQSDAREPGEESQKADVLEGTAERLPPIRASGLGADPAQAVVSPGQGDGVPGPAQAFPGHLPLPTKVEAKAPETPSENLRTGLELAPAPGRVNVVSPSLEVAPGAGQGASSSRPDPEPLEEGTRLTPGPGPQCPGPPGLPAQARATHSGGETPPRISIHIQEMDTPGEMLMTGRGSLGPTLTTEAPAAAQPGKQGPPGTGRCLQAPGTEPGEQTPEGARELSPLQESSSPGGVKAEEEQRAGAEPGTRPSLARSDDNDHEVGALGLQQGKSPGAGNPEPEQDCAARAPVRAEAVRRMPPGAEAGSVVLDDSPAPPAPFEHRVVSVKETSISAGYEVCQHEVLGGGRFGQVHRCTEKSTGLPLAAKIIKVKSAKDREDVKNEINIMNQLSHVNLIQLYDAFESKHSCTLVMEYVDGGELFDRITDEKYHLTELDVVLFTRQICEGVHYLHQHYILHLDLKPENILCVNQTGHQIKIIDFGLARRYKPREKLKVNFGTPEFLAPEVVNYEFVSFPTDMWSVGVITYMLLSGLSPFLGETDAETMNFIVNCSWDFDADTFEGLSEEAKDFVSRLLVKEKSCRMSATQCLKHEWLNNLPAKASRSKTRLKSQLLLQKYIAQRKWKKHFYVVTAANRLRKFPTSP

ASK1/MAP3K5 = target: T3, ASK1/MAP3K5 (Homo sapiens, UniProt Q99683); test: biochemical; conditions: read-out: % enzyme activity, 1 μM; Run 1, Run 2
T3 sequence (Q99683 1-1374): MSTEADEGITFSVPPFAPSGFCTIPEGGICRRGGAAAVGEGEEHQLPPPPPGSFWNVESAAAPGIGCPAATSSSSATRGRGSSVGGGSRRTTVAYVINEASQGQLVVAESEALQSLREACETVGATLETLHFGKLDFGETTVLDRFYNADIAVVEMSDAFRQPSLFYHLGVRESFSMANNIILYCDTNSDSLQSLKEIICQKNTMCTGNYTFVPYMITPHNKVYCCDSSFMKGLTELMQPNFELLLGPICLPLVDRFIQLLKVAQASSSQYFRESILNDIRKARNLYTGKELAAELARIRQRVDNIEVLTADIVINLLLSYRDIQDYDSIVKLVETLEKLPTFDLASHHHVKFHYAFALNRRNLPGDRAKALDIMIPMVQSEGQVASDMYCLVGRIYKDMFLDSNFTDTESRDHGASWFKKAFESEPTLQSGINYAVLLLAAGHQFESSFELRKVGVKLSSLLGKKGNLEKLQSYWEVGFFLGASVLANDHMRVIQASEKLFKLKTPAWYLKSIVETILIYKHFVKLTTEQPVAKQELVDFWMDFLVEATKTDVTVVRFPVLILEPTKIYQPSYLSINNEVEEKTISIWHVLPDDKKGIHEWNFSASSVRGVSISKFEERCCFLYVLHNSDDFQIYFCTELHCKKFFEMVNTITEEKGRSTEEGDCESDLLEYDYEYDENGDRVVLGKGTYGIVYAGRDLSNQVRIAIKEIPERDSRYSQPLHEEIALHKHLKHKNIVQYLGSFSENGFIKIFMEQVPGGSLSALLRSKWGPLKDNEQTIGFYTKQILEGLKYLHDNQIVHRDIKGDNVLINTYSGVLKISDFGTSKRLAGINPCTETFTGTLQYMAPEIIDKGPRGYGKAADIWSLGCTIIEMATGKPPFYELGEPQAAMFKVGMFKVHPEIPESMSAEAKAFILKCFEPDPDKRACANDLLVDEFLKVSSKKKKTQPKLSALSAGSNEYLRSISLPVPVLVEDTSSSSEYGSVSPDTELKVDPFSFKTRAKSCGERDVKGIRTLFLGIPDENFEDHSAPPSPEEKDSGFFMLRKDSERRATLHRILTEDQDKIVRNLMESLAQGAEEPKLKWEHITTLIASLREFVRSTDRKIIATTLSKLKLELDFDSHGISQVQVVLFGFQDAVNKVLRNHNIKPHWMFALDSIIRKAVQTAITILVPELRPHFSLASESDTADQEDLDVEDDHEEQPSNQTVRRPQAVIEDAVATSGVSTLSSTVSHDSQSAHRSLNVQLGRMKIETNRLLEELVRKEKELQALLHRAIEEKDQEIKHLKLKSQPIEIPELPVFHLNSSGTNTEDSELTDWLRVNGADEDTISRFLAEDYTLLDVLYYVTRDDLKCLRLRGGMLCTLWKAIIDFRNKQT

LYN = LYN (Homo sapiens, UniProt P07948); conditions: 1 μM; Run 1, Run 2
LYN, sequence (P07948 whole entry): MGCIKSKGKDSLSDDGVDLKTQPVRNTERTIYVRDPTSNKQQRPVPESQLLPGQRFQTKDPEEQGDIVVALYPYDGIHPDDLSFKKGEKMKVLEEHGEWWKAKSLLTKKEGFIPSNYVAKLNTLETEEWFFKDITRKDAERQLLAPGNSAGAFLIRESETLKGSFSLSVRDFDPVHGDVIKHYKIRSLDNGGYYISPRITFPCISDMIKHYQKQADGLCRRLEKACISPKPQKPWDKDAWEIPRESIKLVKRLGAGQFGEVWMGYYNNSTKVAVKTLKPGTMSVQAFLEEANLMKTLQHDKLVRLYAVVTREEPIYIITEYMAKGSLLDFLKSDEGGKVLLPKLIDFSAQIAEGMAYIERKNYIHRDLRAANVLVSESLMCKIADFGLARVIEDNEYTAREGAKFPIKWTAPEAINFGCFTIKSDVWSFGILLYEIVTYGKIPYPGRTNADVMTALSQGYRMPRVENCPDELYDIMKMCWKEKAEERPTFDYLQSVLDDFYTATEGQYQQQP

CSK [1] = target: T4, CSK (Homo sapiens, UniProt P41240); test: biochemical; conditions: read-out: % enzyme activity, 1 μM; Run 1, Run 2
T4 sequence (P41240 whole entry): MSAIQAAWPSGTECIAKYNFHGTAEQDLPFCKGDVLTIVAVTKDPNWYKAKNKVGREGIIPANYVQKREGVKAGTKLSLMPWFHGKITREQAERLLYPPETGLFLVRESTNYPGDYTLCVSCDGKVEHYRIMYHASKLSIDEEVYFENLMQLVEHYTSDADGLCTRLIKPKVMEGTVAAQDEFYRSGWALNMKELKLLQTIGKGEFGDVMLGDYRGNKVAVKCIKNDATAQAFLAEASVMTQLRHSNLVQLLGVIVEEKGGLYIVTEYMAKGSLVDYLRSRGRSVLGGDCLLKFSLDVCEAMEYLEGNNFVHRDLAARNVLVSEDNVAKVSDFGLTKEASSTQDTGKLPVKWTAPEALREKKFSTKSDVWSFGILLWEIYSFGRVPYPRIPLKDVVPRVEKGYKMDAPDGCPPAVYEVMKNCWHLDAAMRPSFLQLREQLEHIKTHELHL

CSK [2] = target: T4, CSK; conditions: 1 μM; Run 1, Run 2

Row | SMILES | remaining activity at 1 µM (NEK11) [%] | remaining activity at 1 µM (MYLK3) [%] | remaining activity at 1 µM (ASK1/MAP3K5) [%] | % enzyme activity (LYN) [%] | remaining activity at 1 µM (CSK [1]) [%] | % enzyme activity (CSK [2]) [%]
1 | COc1cc(-c2cncc(-c3ccc(N4CCN(C)CC4)cc3)c2C)cc(F)c1C(N)=O [Compound 26a, 2-Fluoro-6-methoxy-4-(4-methyl-5-(4-(4-methylpiperazin-1-yl)phenyl)pyridin-3-yl)benzamide] | 90.6 | 99.8 | 95.5 | 79.23 | 99.5 | 99.36
2 | COc1cc(-c2cncc(-c3ccc(N4C[C@@H](C)N(C)[C@@H](C)C4)cc3)c2C)cc(F)c1C(N)=O [Compound 26c, 2-Fluoro-6-methoxy-4-(4-methyl-5-(4-((3R,5S)-3,4,5-trimethylpiperazin-1-yl)phenyl)pyridin-3-yl)benzamide] | 91.9 | 100 | 97.8 | 88.67 | 104 | 102.04
